Data set [1] can be described thus: Metabolic stability in rat liver microsomes assessed as half life preincubated for 5 mins followed by NADPH addition and measured upto 60 mins by LC-MS analysis. It counts as ADME, Microsome. The conditions noted are these: time < 65 min. (Microsomes from liver hold many membrane-bound enzymes, among them those of drug oxidation.)
For data set [2], the target named is T1, Peroxisome proliferator-activated receptor delta (Homo sapiens, UniProt Q03181).
T1 sequence (Q03181 whole entry): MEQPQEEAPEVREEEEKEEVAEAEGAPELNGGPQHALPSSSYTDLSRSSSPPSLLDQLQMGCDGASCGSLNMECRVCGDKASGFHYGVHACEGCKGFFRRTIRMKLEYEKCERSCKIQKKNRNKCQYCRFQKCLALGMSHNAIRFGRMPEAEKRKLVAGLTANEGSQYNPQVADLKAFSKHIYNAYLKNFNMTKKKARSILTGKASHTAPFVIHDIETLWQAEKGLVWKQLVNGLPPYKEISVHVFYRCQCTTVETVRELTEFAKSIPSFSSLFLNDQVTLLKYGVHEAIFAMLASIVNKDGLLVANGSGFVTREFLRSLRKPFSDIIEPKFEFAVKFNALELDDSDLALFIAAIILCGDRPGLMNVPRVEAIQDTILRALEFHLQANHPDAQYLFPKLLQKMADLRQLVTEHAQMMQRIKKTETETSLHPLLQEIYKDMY
Briefly: Agonist activity at PPARdelta (unknown origin).

The target of data set [3] is T2, Peroxisome proliferator-activated receptor alpha (Homo sapiens, UniProt Q07869).
T2 sequence (Q07869 whole entry): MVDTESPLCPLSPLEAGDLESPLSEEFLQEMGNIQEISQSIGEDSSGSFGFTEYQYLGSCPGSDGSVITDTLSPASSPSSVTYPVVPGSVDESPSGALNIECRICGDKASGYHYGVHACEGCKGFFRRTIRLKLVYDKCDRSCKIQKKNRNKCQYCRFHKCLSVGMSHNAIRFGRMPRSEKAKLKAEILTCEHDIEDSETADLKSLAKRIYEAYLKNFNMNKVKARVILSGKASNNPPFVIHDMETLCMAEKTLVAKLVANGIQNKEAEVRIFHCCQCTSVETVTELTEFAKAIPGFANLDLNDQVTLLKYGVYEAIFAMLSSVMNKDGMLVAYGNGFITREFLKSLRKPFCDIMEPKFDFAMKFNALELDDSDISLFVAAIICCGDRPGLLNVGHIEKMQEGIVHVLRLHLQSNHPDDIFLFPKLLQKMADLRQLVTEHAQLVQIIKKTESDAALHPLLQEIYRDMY
Briefly: Agonist activity at PPARalpha (unknown origin).

The nature of data set [4]: Half life in rat. The conditions noted are these: in vivo. It counts as ADME.
Data set [5] addresses T3, Peroxisome proliferator-activated receptor gamma (Homo sapiens, UniProt P37231).
T3 sequence (P37231 whole entry): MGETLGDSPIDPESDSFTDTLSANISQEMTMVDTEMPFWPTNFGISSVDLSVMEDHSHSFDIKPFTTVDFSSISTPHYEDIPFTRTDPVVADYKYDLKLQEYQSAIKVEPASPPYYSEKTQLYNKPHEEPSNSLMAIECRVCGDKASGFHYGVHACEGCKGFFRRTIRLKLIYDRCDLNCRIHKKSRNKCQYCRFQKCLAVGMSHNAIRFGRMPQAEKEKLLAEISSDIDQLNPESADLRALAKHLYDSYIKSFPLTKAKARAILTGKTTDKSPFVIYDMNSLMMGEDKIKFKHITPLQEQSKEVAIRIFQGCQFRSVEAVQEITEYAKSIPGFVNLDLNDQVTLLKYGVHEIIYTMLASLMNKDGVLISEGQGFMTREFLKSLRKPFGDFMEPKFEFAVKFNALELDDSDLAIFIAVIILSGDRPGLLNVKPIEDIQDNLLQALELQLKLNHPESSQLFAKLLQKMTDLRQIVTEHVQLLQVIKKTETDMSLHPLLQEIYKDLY
The data set can be described thus: Agonist activity at PPARgamma (unknown origin).

One may read the half-life as the time needed for the level to fall by half in the phase considered. `[2H]C([2H])(Cc1cn(S(=O)(=O)c2ccc(C3CC3)cc2)c2ccc(OC)cc12)C(=O)O`: in data set [1], the half-life turned out to be 1.06 h.
Same read-out and setting: next, `[2H]C([2H])(Cc1cn(S(=O)(=O)c2ccc3c(c2)CCO3)c2ccc(OC)cc12)C(=O)O`: 1.12 h.
Broadly, the EC50 is the concentration giving half of the maximal effect. Read a low EC50 as a more potent agent. For the molecule `[2H]C([2H])(Cc1cn(S(=O)(=O)c2ccc(OC)cc2)c2ccc(OC)cc12)C(=O)O`, the EC50 in data set [2] worked out at 850 nM; in data set [3], 980 nM. Moreover, the half-life in data set [1] turned out to be 1.16 h.
As for `COc1ccc(S(=O)(=O)n2cc(CCC(=O)O)c3cc(OC)ccc32)cc1` [INDEGLITAZAR], the half-life in data set [4] was 1.4 h; in data set [1] it was 0.775 h. Further, the concentration for a half-maximal effect (EC50) amounted to 940 nM in data set [2] and 1150 nM in data set [3].
Regarding `[2H]C([2H])(Cc1cn(S(=O)(=O)c2ccc(OC(F)(F)F)cc2)c2ccc(OC)cc12)C(=O)O`, the EC50 in data set [5] was determined as 950 nM; in data set [3], 1260 nM. Besides, the half-life in data set [1] is 1.23 h.
Regarding `[2H]C([2H])(Cc1cn(S(=O)(=O)c2ccc(OC)cc2)c2ccc(C3CC3)cc12)C(=O)O`, the figures for the 50% effective concentration (EC50) in data set [2] and in data set [3] were 2970 nM and 2520 nM, respectively. The half-life in data set [1] was determined as 1.14 h.

These data come from ChEMBL document CHEMBL5356952, “Design, synthesis, and biological evaluation of deuterated indolepropionic acid derivatives as novel long-acting pan PPARα/γ/δ agonists” (Bioorg Med Chem, 2023).
